According to patent US20040248208A1, “Screening method” (priority 2001, published 2004):

Experiments:
Type in all cases: cell-based
TGR4 [1] = molecular target: T1, TGR4 (Homo sapiens, UniProt Q9H1C0); experiment: Intracellular calcium ion mobilization activity in TGR4-expressing CHO cells (FLIPR); conditions: for EC50: TGR4-expressing CHO cells, 100% = reaction when 2 × 10^−6 M farnesyl 2-phosphate was added, read-out: Intracellular Ca^2+ mobilization activity (EC50); for concentration dependency of intracellular calcium ion mobilization activity: CHO-TGR4 (FIG. 16)
T1 construct: expressed in transfected cells
Method: Using TGR4 expression vector prepared in EXAMPLE 1, according to the publicly known method, the CHO cells stably expressing TGR4, which is designated CHO-TGR4, were prepared. CHO-TGR4 or CHO-mock cells, in which no receptor gene is introduced, was seeded to 96-well plate of Black plate, Clear bottom available from Costar at the concentration of 30,000 cells/well. After cultivation at 37° C. in the presence of 5% CO2 for overnight, the cells were used for assay. For washing buffer, Hank's balanced salt solution (HBSS, GibcoBRL) supplemented with 20 mM HEPES (pH7.4) and 2.5 mM probeneside (Sigma) was prepared. For sample buffer, the washing buffer supplemented with 0.1% bovine serum albumin (BSA, Sigma) was used. The washing buffer supplemented with 1% FBS, 4 μM Fluo 3-AM (Wako Pure Chemicals) and 0.04% Pluronic acid (Molecular Probes) was used as a dye loading solution. After discarding the medium, adding the dye loading solution and incubating the cells at 37° C. for 1 hour, using the plate washer, the cells were washed with the washing buffer. The cells were set to Fluorometric Imaging Plate Reader (FLIPR, Molecular Device) and the change of intracellular calcium ion concentration during three minutes after addition of sample was measured. FPP and LPA were added to sample to make a final concentration 2.5 μM each.
As well as the method described in EXAMPLE 7, using TGR4-expressing CHO cells and mock CHO cells, a study on concentration dependency of intracellular calcium ion mobilization activity by substances associated with various phospholipids compounds was made. For substances associated with various phospholipids compounds, geranylgeranyl 2-phosphate, farnesyl 2-phosphate, geranyl 2-phosphate, lysophosphatidic acid, sphingosine 1-phosphate, nordeoxycholic acid, deoxycholic acid, geranylgeranyol, farnesol were used.

TGR4 [2] = molecular target: T1, TGR4; experiment: CRE-luciferase reporter gene assay in CHO cells transiently expressing TGR4; conditions: 4 hours, TGR4 and Gi co-transfected with pCRE-Luc (FIG. 4)
Method: The expression vector plasmid pAK-TGR4 or pAK-Gi, which was prepared by inserting TGR4 cDNA or suppressive G protein a subunit Gi cDNA into pAKKO-111H, the expression plasmid vector for animal cells (the same plasmid vector as pAKKO-111H described in Biochem. Biophys. Acta by Hinuma, S. et al., Vol. 1219, pp. 251-259, 1994), and original pAKKO-111H, in which no specific gene was inserted, were transfected into the CHO cells by the following method.
Using these vectors, Escherichia coli JM109 was transformed. A colony obtained was isolated and cultured for preparation of plasmid with QIAGEN Plasmid Maxi Kit (Qiagen). Further, plasmid of pCRE-Luc (CLONTECH), in which luciferase gene is ligated as a reporter downstream cAMP response element (CRE), was prepared in a similar method. The CHO-mock cells, wherein the CHO (dhfr^−0 cells were transformed with pAKKO-111H, were seeded in 96-well black plate (Costar) at 40,000 cells/well and 100 μl of culture volume, and were cultured for overnight. For a culture on the plate, DMEM (Dulbecco's modified Eagle's medium, CibcoBRL) supplemented with nothing but 10% fetal bovine serum was used. In order to detect an increase of expression level of the reporter gene more clearly, the pAK-Gi was co-transfected with the pAK-TGR4. Each plasmid was added to 240 μl of Opti-MEM-I (GibcoBRL) at the ratio of 7:3:1 of pAK-TGR4:pAK-Gi:reporter plasmid pCRE-Luc. This solution was mixed with the same volume of solution wherein 10 μl of Lipofectamine 2000 was added to 240 μl of Opti-MEM-I to form a complex of liposome and plasmid according to the method described in the manual attached to Lipofectamine 2000. To culture of CHO-mock cells, 25 μl/well of the above-mentioned solution was added. After 4 hours at 37° C., a culture broth was replaced to an assay buffer (DMEM supplemented with 0.1% bovine serum albumin) to be serum-free for introduction of the plasmid. Then, these cells were cultured at 37° C. under the condition of 5% CO2 for overnight.
To the CHO-mock cells transfected as described above, geranylgeranyl 2-phosphate (GGPP, Sigma), farnesyl 2-phosphate (FPP, Sigma) and lysophosphatidic acid (LPA, Sigma) were added to the concentration of 1 μM, 0.1 μM, and […], respectively, and incubated at 37° C. under the condition of 5% CO2 for 4 hours. After discarding the supernatant, 50 μl of Picagene LT2.0, the substrate for assaying luciferase activity were added, and luminescence level of luciferase was measured using plate reader (ARVO sx multilabel counter, Wallac).

TGR4 [3] = molecular target: T1, TGR4; experiment: Activation of p44/42 MAP kinase in human TGR4-expressing CHO cells; conditions: 0.1 μM; TGR4-expressing CHO cells versus mock cells
Method: Human TGR4-expressing CHO cells and mock cells were seeded on 6-well plate at the concentration of 3×10^5 cells/well and cultured for overnight. For removal of serum, the medium was replaced with α-MEM including no nucleic acid supplemented with 0.1% BSA, and the cells were further incubated for overnight. Until just before assay, preincubation using the same medium for 2 hours was carried out. By adding 0.1 μM farnesyl 2-phosphate to the medium, the treatment was started. With respect to each given time, the medium was removed by aspiration and the reaction was terminated by addition of sumple buffer for SDS-PAGE. In accordance with conventional manner, SDS-PAGE was done and then the proteins were transferred to nitrocellulose membrane. Following the method described in the manual of Phospho Plus p44/42 MAPK (Thr202/Tyr204) Antibody Kit (Cell Signaling), detection of p44/42 MAP kinase was performed. […] Thus it became clear that the enzyme was activated.

TGR4 [4] = molecular target: T1, TGR4; experiment: cAMP production in TGR4-expressing CHO cells; conditions: for cAMP production increasing activity dependent on concentration: CHO-TGR4 (FIG. 18); for level of cAMP production: final concentration 2 μM, 30 minutes, CHO-TGR4 versus CHO-mock (FIGS. 7 and 8)
Method: The CHO-TGR4 prepared in EXAMPLE 2, or the CHO-mock cells, in which no receptor gene is introduced, were seeded on 96-well plate at the concentration of 25,000 cells/well. After cultivation at 37° C. in the presence of 5% CO2 for overnight, the cells were used for assay. For the sample buffer, HBSS supplemented with 0.1% BSA and 0.2 mM IBMX (Sigma) was used. The cells were washed twice with the sample buffer and pre-incubated at 37° C. for 30 minutes. Thereafter, the cells were also washed twice and incubated at 37° C. for 30 minutes after adding of sample. Farnesyl 2-phosphate or lysophophatidic acid was added to the sample to make a finalconcentration 2 μM. After incubation with the sample, a level of cAMP production was measured using cAMP Screen System (ABI).
As well as the method described in EXAMPLE 8, using TGR4-expressing CHO cells and mock CHO cells, a study on concentration dependency of cAMP production increasing activity by substances associated with various phospholipids compounds was made. […] For abbreviation of compounds, see EXAMPLE 9.

TGR4-GFP fusion protein = molecular target: T2, TGR4-GFP fusion protein (Homo sapiens, UniProt Q9H1C0); experiment: Intracellular translocation of TGR4-GFP fusion protein expressed in CHO cells; conditions: 10^−6 M, thirty minutes after addition
T2 construct: expressed in transfected cells; host or cells: CHO-mock cells (CHO dhfr- transformed with pAKKO-111H), transient, Lipofectamine 2000
Text: Expression plasmid wherein fusion protein that cDNA encoding Green Fluorescent protein (GFP) isolated from Aequorea coerulescens was ligated to the C-terminus of TGR4 by adjusting a translation frame, was constructed. As GFP cDNA, a fragment excised from GFP-expressing vector pQBI25 (Takara Shuzo) was used. The stop codon of TGR4 was modified to the recognition sequence of restriction enzyme NheI by the PCR method. GFP fragment was ligated to the terminus, and the obtained fragment was inserted into the expression vector pAKKO-111H. The thus obtained plasmid, which is an expression vector for fusion protein of TGR4 and GFP (hereinafter referred to as TGR4-GFP) was transfected to CHO-mock cells by the following method. The CHO-mock cells were suspended in growth medium (DMEM (Dulbecco's Modified Eagle Medium) (GIBCO BRL) supplemented with 10% fetal bovine serum (GIBCO BRL)), seeded on Lab-Tek II coverglass chamber (Nalgen Nunc), which has 4 chambers, at the concentration of 0.6×10^5 cells/chamber. After cultivation at 37° C. in the presence of 5% CO2 for overnight, transfection was carried out. For transfection, Lipofectamine™ 2000 Reagent (GIBCO BRL) was used. Firstly, 2 μl of Lipofectamine™ 2000 Reagent and 50 μl of OPTI-MEM-I (GIBCO BRL) were admixed and stood for 20 minutes at room temperature to form a complex of DNA with lipofectamine. […]

| EC50 (TGR4 [1]) | Molecule | also measured |
| --- | --- | --- |
| > 2500 nM | CC(C)=CCCC(C)=CCCC(C)=CCO [Farnesol] | – |
| 29 nM | CC(C)=CCC/C(C)=C/CC/C(C)=C/COP(=O)(O)OP(=O)(O)O [Farnesyl 2-phosphate, farnesyl 2-phosphate] | luciferase activity (TGR4 [2]; 0.1 μM): increase of luciferase activity was detected; luciferase activity (TGR4 [2]; 1 μM): increase of luciferase activity was detected; phosphorylation of p44/42 MAP kinase (TGR4 [3]): phosphorylation of MAP kinase specific to human TGR-expressing CHO cells; concentration dependency of intracellular calcium ion mobilization activity (TGR4 [1]): activity dependent on concentration was perceived; intracellular calcium ion mobilization activity (TGR4 [1]; final concentration 2.5 μM, CHO-TGR4 versus CHO-mock (FIGS. 5 and 6)): increased in the manner specific to CHO-TGR4; cAMP production increasing activity dependent on concentration (TGR4 [4]): activity dependent on concentration was perceived; level of cAMP production (TGR4 [4]): increased in the manner specific to CHO-TGR4; translocation of TGR4-GFP fluorescence from cell membrane (TGR4-GFP fusion protein): translocated to cytoplasm |
| > 2500 nM | CC(C)=CCC/C(C)=C/CCC(=O)O [Geranyl acetic acid] | – |
| > 2500 nM | CC(=O)CC/C=C(\C)CCC=C(C)C [Geranyl acetone] | – |
| > 2500 nM | CC(C)=CCC/C(C)=C/CC/C(C)=C/CC/C(C)=C/CO [Geranylgeranyol] | – |
| > 2500 nM | CC(C)=CCC/C(C)=C/CO [Geranyol] | – |

The remaining lines, values behind:

| Molecule | EC50 (TGR4 [1]) | also measured |
| --- | --- | --- |
| C[C@H](CCC(=O)O)[C@H]1CC[C@H]2[C@@H]3CC[C@@H]4C[C@H](O)CC[C@]4(C)[C@H]3C[C@H](O)[C@]12C [Deoxycholic acid] | > 2500 nM | – |
| CC(C)=CCOP(=O)(O)OP(=O)(O)O [Dimethylaryl 2-phosphate] | > 2500 nM | – |
| CC(C)=CCC/C(C)=C/COP(=O)(O)OP(=O)(O)O [Geranyl 2-phosphate] | > 2500 nM | – |
| CC(C)=CCC/C(C)=C/CN [Geranylamine] | > 2500 nM | – |
| CC(C)=CCC/C(C)=C/CCl [Geranylchloride] | > 2500 nM | – |
| CC(C)=CCC/C(C)=C/CC/C(C)=C/CC/C(C)=C/COP(=O)(O)OP(=O)(O)O [Geranylgeranyl 2-phosphate, geranylgeranyl 2-phosphate] | 19 nM | luciferase activity (TGR4 [2]; 0.1 μM): increase of luciferase activity was detected; luciferase activity (TGR4 [2]; 1 μM): increase of luciferase activity was detected; concentration dependency of intracellular calcium ion mobilization activity (TGR4 [1]): activity dependent on concentration was perceived; cAMP production increasing activity dependent on concentration (TGR4 [4]): activity dependent on concentration was perceived |
| C[C@H](CCC(=O)O)[C@H]1CC[C@H]2[C@@H]3CC[C@@H]4C[C@H](O)CC[C@]4(C)[C@H]3CC[C@]12C [Lithocolic acid] | > 2500 nM | – |
| C[C@H](CC(=O)O)[C@H]1CC[C@H]2[C@@H]3CC[C@@H]4C[C@H](O)CC[C@]4(C)[C@H]3C[C@H](O)[C@]12C [Nordeoxycholic acid] | > 2500 nM | – |
| CCCCCCCCCCCCC/C=C/[C@@H](O)[C@@H](N)COP(=O)(O)O [Sphingosine 1-phosphate] | 1500 nM | – |
| lysophosphatidic acid | – | luciferase activity (TGR4 [2]; 1 μM): increase of luciferase activity was detected; level of cAMP production (TGR4 [4]): increased in the manner specific to CHO-TGR4 |
